Reference: ChEMBL document CHEMBL1201862, “PubChem BioAssay data set” (2004)
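Dose response: 5 concentrations. Exposure: 48 h. Format: 96-well plates. Endpoint: linear interpolation; highest concentration if not reached. Here, GI50 denotes the concentration required for 50% inhibition of growth.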 Active and inactive are the calls of the source. Cut-off read from the data, not from the text of the source: active = GI50 up to about 1.1 µM and inactive = higher.

How the values were obtained:
Assay in all cases: growth of human tumour cells (NCI), 48 h
[1] = test system: OVCAR-4
[2] = test system: U-251
[3] = test system: Malme-3M
[4] = test system: NCI-H460
[5] = test system: HCC 2998
[6] = test system: SF-539
[7] = test system: DMS-114
[8] = test system: HT-29
[9] = test system: A549
[10] = test system: MOLT-4
[11] = test system: IGROV-1
[12] = test system: K562
[13] = test system: M19-MEL
[14] = test system: OVCAR-3
[15] = test system: HCT-116
[16] = test system: EKVX
[17] = test system: HL-60
[18] = test system: NCI-H23
[19] = test system: UACC-257
[20] = test system: UO-31
[21] = test system: SK-MEL-5
[22] = test system: COLO 205
[23] = test system: SNB-78
[24] = test system: SNB-75
[25] = test system: NCI-H226
[26] = test system: SK-MEL-2
[27] = test system: DMS-273
[28] = test system: SK-OV-3
[29] = test system: RPMI-8226
[30] = test system: OVCAR-8
[31] = test system: MCF7
[32] = test system: UACC-62
[33] = test system: HOP-18
[34] = test system: SW-620
[35] = test system: RXF 393
[36] = test system: SNB-19
[37] = test system: SF-295
[38] = test system: LOX IMVI
[39] = test system: A498
[40] = test system: SF-268
[41] = test system: KM-20L2
[42] = test system: HOP-92
[43] = test system: XF498
[44] = test system: DLD-1
[45] = test system: KM12
[46] = test system: SN12C
[47] = test system: SK-MEL-28
[48] = test system: NCI-H522
[49] = test system: HCT-15
[50] = test system: OVCAR-5
[51] = test system: NCI/ADR-RES
[52] = test system: CAKI-1
[53] = test system: CCRF-CEM
[54] = test system: HOP-62
[55] = test system: LXFL 529
[56] = test system: TK-10
[57] = test system: 786-0
[58] = test system: SR
[59] = test system: M14
[60] = test system: ACHN

CC1(C)CC2(CC(C)(C)N1O)NC(=O)OC2=O
GI50 [1]: > 100 µM (inactive)
GI50 [2]: > 100 µM (inactive)
GI50 [3]: > 100 µM (inactive)
GI50 [4]: > 31.6 µM (inactive)
GI50 [5]: > 100 µM (inactive)
GI50 [6]: > 100 µM (inactive)
GI50 [7]: > 100 µM (inactive)
GI50 [8]: > 100 µM (inactive)
GI50 [9]: > 100 µM (inactive)
GI50 [10]: > 100 µM (inactive)
GI50 [11]: > 100 µM (inactive)
GI50 [12]: > 100 µM (inactive)
GI50 [13]: > 100 µM (inactive)
GI50 [14]: > 100 µM (inactive)
GI50 [15]: > 100 µM (inactive)
GI50 [16]: > 100 µM (inactive)
GI50 [17]: > 100 µM (inactive)
GI50 [18]: > 100 µM (inactive)
GI50 [19]: > 100 µM (inactive)
GI50 [20]: > 100 µM (inactive)
GI50 [21]: > 100 µM (inactive)
GI50 [22]: > 100 µM (inactive)
GI50 [23]: > 100 µM (inactive)
GI50 [24]: > 67.3 µM (inactive)
GI50 [25]: > 100 µM (inactive)
GI50 [26]: > 100 µM (inactive)
GI50 [27]: > 100 µM (inactive)
GI50 [28]: > 100 µM (inactive)
GI50 [29]: > 100 µM (inactive)
GI50 [30]: > 100 µM (inactive)
GI50 [31]: > 100 µM (inactive)
GI50 [32]: > 100 µM (inactive)
GI50 [33]: > 100 µM (inactive)
GI50 [34]: > 100 µM (inactive)
GI50 [35]: > 100 µM (inactive)
GI50 [36]: > 100 µM (inactive)
GI50 [37]: > 100 µM (inactive)
GI50 [38]: > 100 µM (inactive)
GI50 [39]: > 100 µM (inactive)
GI50 [40]: > 100 µM (inactive)
GI50 [41]: > 100 µM (inactive)
GI50 [42]: > 100 µM (inactive)
GI50 [43]: > 100 µM (inactive)
GI50 [44]: > 100 µM (inactive)
GI50 [45]: > 100 µM (inactive)
GI50 [46]: > 100 µM (inactive)
GI50 [47]: > 100 µM (inactive)
GI50 [48]: > 100 µM (inactive)
GI50 [49]: > 100 µM
GI50 [50]: > 100 µM (inactive)
GI50 [51]: > 100 µM (inactive)
GI50 [52]: > 100 µM (inactive)
GI50 [53]: > 77.4 µM (inactive)
GI50 [54]: > 100 µM (inactive)

N#CCCC(C#N)(C#N)CCC#N
GI50 [2]: > 100 µM (inactive)
GI50 [3]: > 100 µM (inactive)
GI50 [4]: > 100 µM (inactive)
GI50 [5]: > 100 µM (inactive)
GI50 [55]: > 100 µM (inactive)
GI50 [6]: > 100 µM (inactive)
GI50 [56]: > 100 µM (inactive)
GI50 [7]: > 100 µM (inactive)
GI50 [8]: > 100 µM (inactive)
GI50 [9]: > 100 µM (inactive)
GI50 [57]: > 100 µM (inactive)
GI50 [10]: > 100 µM (inactive)
GI50 [11]: > 100 µM (inactive)
GI50 [12]: > 100 µM (inactive)
GI50 [13]: > 100 µM (inactive)
GI50 [14]: > 100 µM (inactive)
GI50 [15]: > 100 µM (inactive)
GI50 [58]: > 100 µM (inactive)
GI50 [16]: > 100 µM (inactive)
GI50 [17]: > 100 µM (inactive)
GI50 [18]: > 100 µM (inactive)
GI50 [19]: > 100 µM (inactive)
GI50 [20]: > 100 µM (inactive)
GI50 [21]: > 100 µM (inactive)
GI50 [59]: > 100 µM (inactive)
GI50 [22]: > 100 µM (inactive)
GI50 [25]: > 100 µM (inactive)
GI50 [27]: > 100 µM (inactive)
GI50 [28]: > 100 µM (inactive)
GI50 [29]: > 100 µM (inactive)
GI50 [30]: > 100 µM (inactive)
GI50 [60]: > 100 µM (inactive)
GI50 [32]: > 100 µM (inactive)
GI50 [34]: > 100 µM (inactive)
GI50 [36]: > 100 µM (inactive)
GI50 [37]: > 100 µM (inactive)
GI50 [38]: > 100 µM (inactive)
GI50 [40]: > 100 µM (inactive)
GI50 [41]: > 100 µM (inactive)
GI50 [43]: > 100 µM (inactive)
GI50 [45]: > 100 µM (inactive)
GI50 [46]: > 100 µM (inactive)
GI50 [47]: > 100 µM (inactive)
GI50 [48]: > 100 µM (inactive)
GI50 [49]: > 100 µM
GI50 [53]: > 10 µM (inactive)
GI50 [54]: > 100 µM (inactive)
